Legend:
[1] = target: T1, hA2B (A2BAR) (Homo sapiens, UniProt P29275); test: cAMP assay, NECA-stimulated, HEK-293 cells with transfected A2BAR; type: cell-based; settings: n=3, read-out: Kb hA2B (cAMP production)
T1 construct: expressed in transfected cells; host or cells: HEK-293
T1 sequence (P29275 1-332): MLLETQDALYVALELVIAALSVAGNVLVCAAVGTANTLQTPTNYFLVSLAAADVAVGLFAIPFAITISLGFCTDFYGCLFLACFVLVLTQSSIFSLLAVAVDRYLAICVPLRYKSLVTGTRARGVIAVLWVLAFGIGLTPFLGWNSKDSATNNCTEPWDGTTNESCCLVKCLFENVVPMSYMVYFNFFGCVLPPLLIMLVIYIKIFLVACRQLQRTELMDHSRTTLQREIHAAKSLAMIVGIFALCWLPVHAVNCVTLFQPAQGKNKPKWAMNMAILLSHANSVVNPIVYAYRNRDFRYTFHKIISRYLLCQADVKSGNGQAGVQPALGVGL
Method: Assays were performed in transfected A2BAR using a cyclic AMP (cAMP) enzyme immunoassay kit (Amersham Biosciences) following previously described protocols.[28 30] HEK-293 cells were seeded (10,000 cells/well) in 96-well culture plates and incubated at 37°C in an atmosphere with 5% CO2 in Eagle’s Medium Nutrient Mixture F-12 (EMEM F-12), containing 10% fetal calf serum (FCS) and 1% L-Glutamine. Cells were washed three times with 200 µL assay medium (EMEM-F12 and 25 mM HEPES pH=7.4) and pre-incubated with assay medium containing 30 µM rolipram and test compounds at 37°C for 15 min. Ten µM NECA was incubated for 15 min at 37°C (total incubation time 30 min). Reaction was stopped with lysis buffer supplied in the kit and the enzyme immunoassay was carried out for detection of intracellular cAMP at 450 nm in an Ultra Evolution detector (Tecan). The dose-response curve of NECA-elicited cAMP formation was used to determine the initial choice of A2BAR antagonist concentration (online supplemental figure 2).

[2] = test system: healthy donor T cells (PBMCs) and NK cells; test: CFSE proliferation assay with exogenous adenosine; type: cell-based, human; settings: higher concentration further restoring proliferation, data not shown
[3] = test system: healthy donor T cells in MPNST patient-derived sarcoma spheroid; test: Proliferation assay with CD73-expressing patient-derived sarcoma (MPNST) spheroid; type: cell-based, human; settings: antagonist 12 µM, 3 days, endogenous adenosine, n=5 healthy donors
Method: A malignant peripheral nerve sheath tumor (MPNST) patient-derived sarcoma cell line was used to grow spheroid by seeding 1×10^4 cells per well in a 96-well ultra-low attachment plate (Thermo Fisher Scientific) with DMEM-F12 media containing 20% FBS and 1% PS for 5 days. 1×10^5 CSFE-labeled healthy PBMCs, ratio of 10:1, were added to the CD73 expressing, adenosine-producing spheroid at day five. Similar to the proliferation assay with exogenous ADO, CD3/CD28 beads at 1:4 ratio and IL-2 at 100 IU/mL were added. A2BAR antagonism treatment at 12 μM was added at the same day.
Figure 5 Rescue of lymphocyte proliferation in sarcoma spheroids by A2BAR antagonism. Relative proliferation of: (A) CD45RA- CD4 T cells, (B) CD45RA+CD4 T cells, (C) CD45RA- CD8 T cells and (D) CD45RA+ CD8 T cells after antagonist 12 µM treatment for 3 days in MPNST patient-derived sarcoma spheroid. (n=5 healthy donors) Box plots with minimum, first quartile, median, third quartile, and maximum are presented. Unpaired and non-parametric statistical analysis—Mann-Whitney test was performed against untreated control with *p<0.05, **p<0.01, ***p<0.001, and ****p<0.0001. (E) Representative CSFE dilution of CD45RA+ CD8 T cells. CD45RA expression differentiates naïve and effector T cells from central and effector memory T cells. MPNST, malignant peripheral nerve sheath tumors; UPS, undifferentiated pleomorphic sarcoma.

[4] = test system: sarcoma TILs against autologous tumor cells; test: Chromium (51Cr) release cytotoxicity assay, sarcoma TILs; type: cell-based, human; settings: synthetic ADO, 24 hours
Method: Chromium (51Cr) release cytotoxicity assay
Chromium (51Cr) release assay was used to measure the autologous TILs-mediated cytotoxicity against the established patient-derived breast and […] cell lines. Briefly, breast and sarcoma tumor cells were labelled with 51Cr (PerkinElmer) as target cells and seeded on 96-well V-bottom plate (Corning) at 5 000cells/well. Effector TILs were added at the indicated Effector: Target (E:T) ratios. The supernatants were collected carefully into LUMA plates (PerkinElmer) after 24 and 48 hours of co-culture. After drying overnight, radioactivity of the plate was read with MicroBeta2 (PerkinElmer).
Relative adenosine production assay
An ectonucleotidase CD73 assay was optimized to measure the relative ADO production based on competitive AMP blockade and presence of CD73+ cells. Day five patient-derived sarcoma spheroids were digested and split into triplicates in X-VIVO20 and 1% PS culture media with an excessive amount of AMP at 0.4mM (Sigma-Aldrich) incubated for 30 minutes.
After 1500 RPM was applied for three minutes, 25 μL supernatant were removed and mixed with 25 μL of 200 μM ATP (Sigma-Aldrich) in the same media. 25 μL of this mixture was added to a white opaque OptiPlate (PerkinElmer) containing 25 μL Cell-Titer Glo reagent (Promega, US). Relative luminescence unit (RLU) can be read on SPARK 10M plate reader with an integration time of 100ms. […]

| Kb [1] [nM] | Compound | Dose dependence of the proliferation rescue on T and NK cells [2] | Rescue of naïve and effector (CD45RA+) CD8 T cell proliferation in adenosine-producing sarcoma spheroids [3] | Rescue of killing in sarcoma TILs against autologous tumor cells [4] |
| --- | --- | --- | --- | --- |
| 27 | CC1=C(C(=O)OC(C)C)C(c2ccco2)n2c(nc3ccccc32)N1 (centres unmarked) [ISAM-140, isopropyl 4-(furan-2-yl)−2-methyl-1,4-dihydrobenzo[4 5] imidazo[1,2 a]pyrimidine-3-carboxylate] | dose-dependent |  |  |
| 6.15 | CC1=C(C(=O)OC(C)C)C(c2ccco2)n2c(nc3ccccc32)N1Cc1ccccc1F (centres unmarked) [ISAM-R56A] |  | significantly rescued | also rescued killing |
